{
  "source": "patent US20090270342A1",
  "about": "“IMMUNOREGULATORY AGENT” (priority 2006, published 2009)",
  "key": {"[1]": {"conditions": "in vivo; cited from earlier work"}, "spleen cells": {"system": "spleen cells", "experiment": "Cytokine production by spleen cells of OVA-sensitized mice restimulated with OVA (Experiment 6)", "assay_type": "in vivo", "method": "In order to investigate the effect of lactosucrose on systemic immunity, the ability for producing cytokines of spleen cells was measured. At two weeks after the second sensitization in Experiment 4, spleens were removed from the mice of the control group and the group administrated with lactosucrose and the spleen cells were adjusted to give a cell concentration of 1×10^7/ml, and then placed in a 24-well plate. At two days or four days after adding 50 μg/ml of OVA, the amounts of IFN-γ, interleukin-2 (IL-2), IL-4, interleukin-5 (IL-5), and IL-10 in the culture supernatant were determined by conventional EIAs using antibodies (commercialized by BD-Pharmingen) corresponding to those. The percentages in parentheses in Table 9 mean relative values to the concentrations of respective cytokines produced by spleen cells from the control mice."}, "IgA in feces": {"system": "IgA in feces", "experiment": "Amount of IgA in feces of mice ingesting lactosucrose diet (Experiment 1)", "assay_type": "in vivo", "conditions": "Lactosucrose 5% (w/w) diet", "method": "An experiment for investigating the effect of lactosucrose ingestion on the enhancement of gut immunity was carried out by measuring the amount of IgA in feces of mice. Female BALB/c mice (six weeks old) were preliminary reared for one week on “AIN-93G”, containing 40% (w/w) of corn starch, 20% (w/w) of casein, 13.2% (w/w) of α-corn starch, 10% (w/w) of sucrose, 7% (w/w) of soybean oil, 5% (w/w) of cellulose, 3.5% (w/w) of mineral mixture, 1% (w/w) of vitamin mixture, 0.3% (w/w) of L-cystine, and 0.0014% (w/w) of hydroquinone, which is a standard purified diet for researching the nutrition of mice and rats published by American National Institute of Nutrition in 1993. Successively, “LS-90P”, a saccharide composition comprising 91.8% (w/w), onadrysolid basis, of lactosucrose commercialized by ENSUIKO Sugar Refining Co., Ltd., Tokyo, Japan, was incorporated into the above purified diet, in which corn starch equal to the amount of the saccharide composition comprising lactosucrose had been removed, to give a lactosucrose content of 5% (w/w), and five mice/group were allowed to ingest the resulting test diet freely. Mice, allowed to ingest “AIN-93G”, as the standard purified diet, were used as control. Then, fresh feces were collected from the mice at one week, two weeks, three weeks, and four weeks after starting the administration of the test diet and the control diet, and the amount of IgA in the feces was measured by ELISA using anti-IgA antibody (Mouse IgA ELISA Quantitation Kit produced by Bethyl Laboratories, Inc., Texas, USA). The amount of IgA was expressed by mg/g-wet feces and the average value of those from five mice was determined. The percentages in parentheses in Table 1 mean relative values to those of the control at respective weeks."}, "[2]": {"conditions": "Lactosucrose 5% (w/w) diet, 2 days after adding 50 μg/ml OVA"}, "[3]": {"conditions": "Lactosucrose 5% (w/w) diet, 4 days after adding 50 μg/ml OVA"}, "[4]": {"conditions": "Lactosucrose 5% (w/w), 2 days after"}, "[5]": {"conditions": "Lactosucrose 5% (w/w), 4 days after"}},
  "data": [
    {"compound": "OC[C@H]1O[C@@H](O[C@H]2[C@H](O)[C@@H](O)[C@@H](O[C@]3(CO)O[C@H](CO)[C@@H](O)[C@@H]3O)O[C@@H]2CO)[C@H](O)[C@@H](O)[C@H]1O", "note": "[Lactosucrose, β-D-galactosyl-(1,4)-α-D-glucosyl-(1,2)-β-D-fructoside]", "values": [
      {"measurement": "Effect of a dose higher than the maximum dose without harmful effect", "setting": "[1]", "value": "causes diarrhea"},
      {"measurement": "Maximum dose of lactosucrose without harmful effect", "setting": "[1]", "value": "0.6-0.8 g/kg-body weight"},
      {"measurement": "IFN-γ produced by spleen cells", "setting": "spleen cells; [2]", "value": "1.1 ± 0.19", "unit": "IU/ml"},
      {"measurement": "IL-2 produced by spleen cells", "setting": "spleen cells; [2]", "value": "290 ± 160", "unit": "pg/mL"},
      {"measurement": "IL-4 produced by spleen cells", "setting": "spleen cells; [2]", "value": "32 ± 10", "unit": "pg/mL"},
      {"measurement": "IL-10 produced by spleen cells", "setting": "spleen cells; [2]", "value": "0.83 ± 0.27", "unit": "ng/mL"},
      {"measurement": "IFN-γ produced by spleen cells", "setting": "spleen cells; [3]", "value": "2.9 ± 0.91", "unit": "IU/ml"},
      {"measurement": "IL-4 produced by spleen cells", "setting": "spleen cells; [3]", "value": "62 ± 31", "unit": "pg/mL"},
      {"measurement": "IL-5 produced by spleen cells", "setting": "spleen cells; [3]", "value": "1.3 ± 0.32", "unit": "ng/mL"},
      {"measurement": "IL-10 produced by spleen cells", "setting": "spleen cells; [3]", "value": "2.7 ± 0.32", "unit": "ng/mL"},
      {"measurement": "IFN-γ produced by spleen cells, relative value to control", "setting": "spleen cells; [4]", "value": "(113%)"},
      {"measurement": "IL-2 produced by spleen cells, relative value to control", "setting": "spleen cells; [4]", "value": "(78%)"},
      {"measurement": "IL-4 produced by spleen cells, relative value to control", "setting": "spleen cells; [4]", "value": "(107%)"},
      {"measurement": "IL-10 produced by spleen cells, relative value to control", "setting": "spleen cells; [4]", "value": "(126%)"},
      {"measurement": "IFN-γ produced by spleen cells, relative value to control", "setting": "spleen cells; [5]", "value": "(88%)"},
      {"measurement": "IL-4 produced by spleen cells, relative value to control", "setting": "spleen cells; [5]", "value": "(63%)"},
      {"measurement": "IL-5 produced by spleen cells, relative value to control", "setting": "spleen cells; [5]", "value": "(81%)"},
      {"measurement": "IL-10 produced by spleen cells, relative value to control", "setting": "spleen cells; [5]", "value": "(123%)"},
      {"measurement": "Amount of IgA in feces, relative value to control", "setting": "IgA in feces; 1 week after", "value": "(232%)"},
      {"measurement": "Amount of IgA in feces", "setting": "IgA in feces; 1 week after (8 weeks old)", "value": "13 ± 2.6", "unit": "mg/g"},
      {"measurement": "Amount of IgA in feces, relative value to control", "setting": "IgA in feces; 2 weeks after", "value": "(285%)"},
      {"measurement": "Amount of IgA in feces", "setting": "IgA in feces; 2 weeks after (9 weeks old)", "value": "5.7 ± 2.3", "unit": "mg/g"},
      {"measurement": "Amount of IgA in feces, relative value to control", "setting": "IgA in feces; 3 weeks after", "value": "(543%)"},
      {"measurement": "Amount of IgA in feces", "setting": "IgA in feces; 3 weeks after (10 weeks old)", "value": "7.6 ± 1.4", "unit": "mg/g"},
      {"measurement": "Amount of IgA in feces, relative value to control", "setting": "IgA in feces; 4 weeks after", "value": "(755%)"},
      {"measurement": "Amount of IgA in feces", "setting": "IgA in feces; 4 weeks after (11 weeks old)", "value": "8.3 ± 1.9", "unit": "mg/g"}
    ]}
  ]
}
